Consider 9 compounds from patent publication US8680012B2, “4-phenyl-pyrane-3,5-diones,4-phenyl-thiopyrane-3,6-diones and cyclohexanetriones as novel herbicides” (Syngenta Crop Protection LLC, priority 2006, dated 2014).

Common to all, as to assay type: in vivo
In test [1] the test system is Alopecurus myosuroides (ALOMY). Briefly: Example B pre-emergence herbicidal activity, glasshouse pot test. Conditions: 312 h, evaluated after 13 days, read-out: Pre-emergence activity ALOMY (100=total damage to plant; 0=no damage to plant); for pest or weed control at 1000 g/ha: rate 1000 g/ha; for pest or weed control at 250 g/ha: rate 250 g/ha. A digest of the protocol:
(§1)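 Herbicidal effect was judged 13 days after treatment as percent-style damage (100 = total kill). Seeds in standard soil had grown 1 day (pre) or 8 days (post) in a 24/16 °C, 14 h light, 65% humidity glasshouse before spraying with compound in acetone/water (50:50) containing 0.5% Tween 20.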

Test [2] concerns Setaria faberi (SETFA). The description is as above. The settings on record: 312 h, evaluated after 13 days, read-out: Pre-emergence activity SETFA (100=total damage to plant; 0=no damage to plant); for pest or weed control at 1000 g/ha: rate 1000 g/ha; for pest or weed control at 250 g/ha: rate 250 g/ha. In outline: as §1
Test [3] has as its system Avena fatua (AVEFA). Described as above. Conditions: 312 h, evaluated after 13 days, read-out: Pre-emergence activity AVEFA (100=total damage to plant; 0=no damage to plant); for pest or weed control at 1000 g/ha: rate 1000 g/ha; for pest or weed control at 250 g/ha: rate 250 g/ha. A digest of the protocol:
as §1

For test [4], the system named is Amaranthus retroflexus (AMARE). The description is as above. The settings on record: 312 h, evaluated after 13 days, read-out: Pre-emergence activity AMARE (100=total damage to plant; 0=no damage to plant); for pest or weed control at 1000 g/ha: rate 1000 g/ha; for pest or weed control at 250 g/ha: rate 250 g/ha. In outline: as §1
For test [5], the system named is Solanum nigrum (SOLNI). Described as above. The settings on record: 312 h, evaluated after 13 days, read-out: Pre-emergence activity SOLNI (100=total damage to plant; 0=no damage to plant); for pest or weed control at 1000 g/ha: rate 1000 g/ha; for pest or weed control at 250 g/ha: rate 250 g/ha. A digest of the protocol:
as §1

Test [6] deals with Echinochloa crus-galli (ECHCG). The test is described as above. The settings on record: 312 h, evaluated after 13 days, read-out: Pre-emergence activity ECHCG (100=total damage to plant; 0=no damage to plant); for pest or weed control at 1000 g/ha: rate 1000 g/ha; for pest or weed control at 250 g/ha: rate 250 g/ha. In outline: as §1
Test [7] relates to Alopecurus myosuroides (ALOMY). Briefly: Example B post-emergence herbicidal activity, glasshouse pot test. The settings on record: 312 h, evaluated after 13 days, read-out: Post-emergence activity ALOMY (100=total damage to plant; 0=no damage to plant); for pest or weed control at 1000 g/ha: rate 1000 g/ha; for pest or weed control at 250 g/ha: rate 250 g/ha. A digest of the protocol:
as §1

Test [8] has as its system Setaria faberi (SETFA). Described as above. The settings on record: 312 h, evaluated after 13 days, read-out: Post-emergence activity SETFA (100=total damage to plant; 0=no damage to plant); for pest or weed control at 1000 g/ha: rate 1000 g/ha; for pest or weed control at 250 g/ha: rate 250 g/ha. A digest of the protocol: as §1
For test [9], the system named is Avena fatua (AVEFA). Described as above. Conditions: 312 h, evaluated after 13 days, read-out: Post-emergence activity AVEFA (100=total damage to plant; 0=no damage to plant); for pest or weed control at 1000 g/ha: rate 1000 g/ha; for pest or weed control at 250 g/ha: rate 250 g/ha. A digest of the protocol: as §1
The subject of test [10] is Amaranthus retroflexus (AMARE). The description is as above. Conditions: 312 h, evaluated after 13 days, read-out: Post-emergence activity AMARE (100=total damage to plant; 0=no damage to plant); for pest or weed control at 1000 g/ha: rate 1000 g/ha; for pest or weed control at 250 g/ha: rate 250 g/ha. A digest of the protocol: as §1
In test [11] the test system is Solanum nigrum (SOLNI). Described as above. Conditions: 312 h, evaluated after 13 days, read-out: Post-emergence activity SOLNI (100=total damage to plant; 0=no damage to plant); for pest or weed control at 1000 g/ha: rate 1000 g/ha; for pest or weed control at 250 g/ha: rate 250 g/ha. In outline:
as §1

The test system of test [12] is Echinochloa crus-galli (ECHCG). The test is described as above. The settings on record: 312 h, evaluated after 13 days, read-out: Post-emergence activity ECHCG (100=total damage to plant; 0=no damage to plant); for pest or weed control at 1000 g/ha: rate 1000 g/ha; for pest or weed control at 250 g/ha: rate 250 g/ha. A digest of the protocol:
as §1

For `Cc1ccc(-c2ccc(Cl)cc2)cc1C1=C(O)[C@@]2(C)CC[C@H](O2)C1=O` (single isomer, unassigned) [Compound A-30], the pest or weed control at 1000 g/ha in test [1] came to 80%; in test [2], 100%; in test [3] it was 70%; in test [4], 0%; in test [5], 0%; in test [6], 100%. Moreover, the pest or weed control at 1000 g/ha in test [7] was determined as 90%; in test [8] it was 100%; in [9], 100%; in test [10] it was 70%; in [11] it was 70%; in test [12] it was 100%.

In the case of `Cc1ccc(-c2ccc(Cl)cc2Cl)cc1C1=C(O)C(C)(C)C(=O)C(C)(C)C1=O` [Compound B-7], the pest or weed control at 1000 g/ha came out at 0% in [1]; 60% in [2]; 0% in [3]; 0% in test [4]; 20% in [5]; 50% in test [6]. Moreover, the pest or weed control at 1000 g/ha in [7] is 20%; in test [8] it was 70%; in [9] it was 20%; in [10] it was 70%; in [11], 70%; in test [12] it was 60%.

Regarding `CCc1ccc(-c2ccc(Cl)nc2Cl)cc1C1=C(O)C(C)(C)C(=O)C(C)(C)C1=O` [Compound B-29], the pest or weed control at 250 g/ha in test [1] came out at 0%; in test [2], 30%; in test [3] it was 0%; in test [4], 0%; in test [5], 0%; in test [6], 20%. Also, the pest or weed control at 250 g/ha amounted to 30% in [7]; 80% in test [8]; 0% in test [9]; 20% in test [10]; 30% in test [11]; 100% in test [12].

For the compound `CCc1ccc(-c2ccc(Cl)cc2)cc1C1=C(OC(=O)CCOC)C(C)(C)OC(C)(C)C1=O` [Compound D-21], the pest or weed control at 1000 g/ha is 90% in test [1]; 100% in test [2]; 50% in [3]; 0% in [4]; 0% in [5]; 100% in test [6]. Further, the pest or weed control at 1000 g/ha turned out to be 100% in test [7]; 100% in test [8]; 90% in test [9]; 10% in test [10]; 30% in test [11]; 100% in [12].

For `C#CCOC(=O)OC1=C(c2cc(-c3ccc(Cl)cc3)ccc2CC)C(=O)C(C)(C)OC1(C)C` [Compound D-15], the pest or weed control at 1000 g/ha in test [1] was found to be 80%; in [2] it was 100%; in test [3], 60%; in test [4], 0%; in test [5], 0%; in [6], 100%. Moreover, the pest or weed control at 1000 g/ha in test [7] stood at 80%; in [8], 100%; in test [9] it was 60%; in test [10] it was 0%; in test [11], 0%; in test [12], 100%.

`CCc1ccc(-c2cnc(Cl)cc2C)cc1C1=C(O)C(C)(C)C(=O)C(C)(C)C1=O` [Compound B-28]: the pest or weed control at 250 g/ha in [1], in test [2], in test [3], in [4], in test [5] and in test [6] was 0% each time. Moreover, the pest or weed control at 250 g/ha in [7] was 0%; in test [8], 70%; in test [9], 0%; in [10] it was 0%; in test [11], 0%; in test [12], 70%.

For `Cc1ccc(-c2ccc(C(C)(C)C)cc2)cc1C1=C(O)C(C)(C)OC(C)(C)C1=O` [Compound A-21], the pest or weed control at 1000 g/ha in test [1] is 100%; in [2] it was 100%; in [3] it was 50%; in test [4], 60%; in [5] it was 50%; in test [6] it was 90%. In addition, the pest or weed control at 1000 g/ha is 40% in test [7]; 60% in [8]; 60% in test [9]; 20% in test [10]; 20% in test [11]; 90% in test [12].

Consider `CCC(=O)OC1=C(c2cc(-c3ccc(Cl)cc3)ccc2CC)C(=O)C(C)(C)OC1(C)C` [Compound D-8], for which the pest or weed control at 1000 g/ha in test [1] was 40%; in test [2], 90%; in test [3], 0%; in test [4], 0%; in test [5] it was 0%; in test [6], 90%. In addition, the pest or weed control at 1000 g/ha in test [7] was determined as 60%; in [8] it was 100%; in test [9], 10%; in test [10] it was 0%; in [11], 0%; in test [12] it was 100%.

As for `CCc1ccc(-c2ccc(Cl)cc2Cl)cc1C1=C(O)C(C)(C)C(=O)C(C)(C)C1=O` [Compound B-13], the pest or weed control at 250 g/ha in test [1] stood at 0%; in test [2] it was 20%; in test [3], 20%; in test [4], 0%; in test [5] it was 0%; in [6], 30%. In addition, the pest or weed control at 250 g/ha was found to be 0% in test [7]; 90% in [8]; 30% in test [9]; 20% in test [10]; 0% in test [11]; 80% in test [12].
